Activity calls are given as the source filed them. No cut-off for these calls is given here.
Experiments:
CT26 [1] = test: Antitumor activity against mouse CT26 cells implanted in female BALB/c mouse assessed as reduction in tumor volume at 1 to 2 mg/kg administrated once every 3 days for 18 days; assay type: functional, organism-based; settings: dose 1-2 mg/kg, time 18.0 day
HCT-116 [2] = test: Antiproliferative activity against Bax knockout human HCT-116 cells assessed as inhibition of cell viability incubated for 24 hrs by CCK8 assay; assay type: functional, cell-based; settings: HCT-116, 24 h
HCT-116 [3] = test: Induction of autophagy pathway in human HCT-116 cells at 1 uM incubated for 24 hrs by GSEA analysis; assay type: functional, cell-based
HCT-116 [4] = test: Upregulation of autophagy pathway related genes expression in human HCT-116 cells at 1 uM incubated for 24 hrs by heat map analysis; assay type: functional, cell-based
HCT-116 [5] = test: Effect on caspase 3 expression level in p53 knockout human HCT-116 cells at 1 to 2 uM incubated for 24 hrs by Western blot analysis; assay type: functional, cell-based; settings: dose 1-2 µM
HCT-116 [6] = test: Antiproliferative activity against p53 knockout human HCT-116 cells assessed as inhibition of cell viability incubated for 24 hrs by CCK8 assay; assay type: functional, cell-based; settings: HCT-116, 24 h
HCT-116 [7] = test: Effect on C-PARP expression level in p53 knockout human HCT-116 cells at 1 to 2 uM incubated for 24 hrs by Western blot analysis; assay type: functional, cell-based; settings: dose 1-2 µM
HCT-116 [8] = test: Inhibition of colony formation in human HCT-116 cells assessed as reduction in number of colonies at 0.5 to 2 uM measured after 24 hrs by crystal violet staining based analysis; assay type: functional, cell-based; settings: dose 0.5-2 µM
CT26 [9] = test: Antitumor activity against mouse CT26 cells implanted in female BALB/c mouse assessed as reduction in tumor volume at 2 mg/kg administrated once every 3 days for 18 days; assay type: functional, organism-based; settings: time 18.0 day
HCT-116 [10] = test: Induction of apoptosis in human HCT-116 assessed as late apoptotic cells at 2 uM incubated for 24 hrs Annexin V FITC/PI double staining based flow cytometry (reference value: 8.02 %); assay type: functional
HCT-116 [11] = test: Induction of apoptosis in human HCT-116 assessed as late apoptotic cells at 1 uM incubated for 24 hrs Annexin V FITC/PI double staining based flow cytometry (reference value: 8.02 %); assay type: functional
HCT-116 [12] = test: Effect on PARP expression level in Bax knockout human HCT-116 cells at 1 to 2 uM incubated for 24 hrs by Western blot analysis; assay type: functional, cell-based; settings: dose 1-2 µM
HCT-116 [13] = test: Induction of apoptosis in human HCT-116 cells assessed as effect on cleaved PARP expression level at 0.5 to 2 uM incubated for 24 hrs by Western blot analysis; assay type: functional, cell-based; settings: dose 0.5-2 µM
BGC-823 = test: Antiproliferative activity against human BGC-823 cells assessed as inhibition of cell growth incubated for 48 hrs by MTT assay; assay type: functional, cell-based; settings: BGC-823, 48 h
HCT-116 [14] = test: Induction of apoptosis in human HCT-116 assessed as viable cells at 1 uM incubated for 24 hrs Annexin V FITC/PI double staining based flow cytometry (Rvb =90.0%); assay type: functional; settings: read-out: Activity
CT26 [15] = test: Antitumor activity against mouse CT26 cells implanted in female BALB/c mouse assessed as reduction in tumor weight at 1 mg/kg administrated once every 3 days for 18 days relative to control; assay type: functional; parameters: scale not given: the % may be the effect or the level left; settings: time 18 day
HCT-116 [16] = test: Induction of apoptosis in human HCT-116 assessed as viable cells at 2 uM incubated for 24 hrs Annexin V FITC/PI double staining based flow cytometry (Rvb =90.0%); assay type: functional; settings: read-out: Activity
HCT-116 [17] = test: Antiproliferative activity against human HCT-116 assessed as inhibition of cell viability incubated for 24 hrs by CCK8 method; assay type: functional, cell-based
786-0 = test: Antiproliferative activity against human 786-0 cells assessed as inhibition of cell growth incubated for 48 hrs by MTT assay; assay type: functional, cell-based; settings: 786-0, 48 h
HCT-116 [18] = test: Inhibition of colony formation in wildtype human HCT-116 cells assessed as reduction in number of colonies at 1 to 4 uM measured after 24 hrs by crystal violet staining based analysis; assay type: functional, cell-based; settings: dose 1-4 µM
HCT-116 [19] = test: Induction of autophagy in ATG7 knockout human HCT-116 cells assessed as increase in LC3-II expression at 1 to 2 uM incubated for 24 hrs by Western blot analysis; assay type: functional, cell-based; settings: dose 1-2 µM
CT26 [20] = test: Antitumor activity against mouse CT26 cells implanted in female BALB/c mouse assessed as reduction in tumor weight at 2 mg/kg administrated once every 3 days for 18 days relative to control; assay type: functional; parameters: scale not given: the % may be the effect or the level left; settings: time 18 day
HCT-116 [21] = test: Induction of apoptosis in human HCT-116 assessed as necrotic cells at 2 uM pretreated with Z-VAD-FMK for 30 mins followed by compound addition and measured after 24 hrs by Annexin V-FITC/PI double staining based flow cytometry (reference value: 0.84%); assay type: functional
HepG2 = test: Antiproliferative activity against human HepG2 cells assessed as inhibition of cell growth incubated for 48 hrs by MTT assay; assay type: functional, cell-based; settings: HepG2, 48 h
HCT-116 [22] = test: Induction of apoptosis in human HCT-116 cells assessed as effect on cleaved caspase 9 expression level at 0.5 to 2 uM incubated for 24 hrs by Western blot analysis; assay type: functional, cell-based; settings: dose 0.5-2 µM
HCT-116 [23] = test: Induction of autophagy in human HCT-116 cells transfected with mRFP-GFP-LC3B assessed as appearance of RFP aggregate clusters in cytoplasm at 0.5 to 2 uM incubated for 24 hrs by DAPI staining based fluorescence confocal microscopic analysis; assay type: functional, cell-based; settings: dose 0.5-2 µM
HCT-116 [24] = test: Induction of apoptosis in human HCT-116 assessed as early apoptotic cells at 1 uM pretreated with Z-VAD-FMK for 30 mins followed by compound addition and measured after 24 hrs by Annexin V-FITC/PI double staining based flow cytometry (reference value: 0.95%); assay type: functional
HCT-116 [25] = test: Effect on cleaved caspase 3 expression level in p53 knockout human HCT-116 cells at 1 to 2 uM incubated for 24 hrs by Western blot analysis; assay type: functional, cell-based; settings: dose 1-2 µM
[26] = Toxicity in female BALB/c mouse implanted with mouse CT26 cells assessed as change in body weight at 1 to 2 mg/kg administrated once every 3 days for 18 days; assay type: organism-based; settings: in vivo, 432 h, dose 1-2 mg/kg, time 18 day
HCT-116 [27] = test: Inhibition of cell migration in human HCT-116 cells at 1 to 2 uM incubated for 24 hrs by crystal violet staining based transwell migration assay; assay type: functional; settings: dose 1-2 µM
SK-OV-3 = test: Antiproliferative activity against human SK-OV-3 cells assessed as inhibition of cell growth incubated for 48 hrs by MTT assay; assay type: functional, cell-based; settings: SK-OV-3, 48 h
HCT-116 [28] = test: Induction of autophagy in human HCT-116 cells transfected with mRFP-GFP-LC3B assessed as autophagolysosome formation by measuring RFP fluorescence at 0.5 to 2 uM incubated for 24 hrs by DAPI staining based fluorescence confocal microscopic analysis; assay type: functional, cell-based; settings: dose 0.5-2 µM
HCT-116 [29] = test: Effect on apoptosis pathway related genes expression in human HCT-116 cells at 1 uM incubated for 24 hrs by GSVA enrichment analysis; assay type: functional, cell-based
MCF7 = test: Antiproliferative activity against human MCF7 cells assessed as inhibition of cell growth incubated for 48 hrs by MTT assay; assay type: functional, cell-based; settings: MCF7, 48 h
HCT-116 [30] = test: Inhibition of cell migration in human HCT-116 cells at 1 to 2 uM incubated for 24 hrs by cell scratch assay; assay type: functional, cell-based; settings: dose 1-2 µM
HCT-116 [31] = test: Induction of autophagy in human HCT-116 cells transfected with tandem mRFP-GFP-LC3 plasmid assessed as reduction in p62 expression incubated for 24 hrs by Western blot analysis; assay type: functional, cell-based; settings: dose 0.5-20 µM

CCN(CC)CCCNCc1cc2c3ccccc3n(CCCc3ccccc3)c2c(CNCCCN(CC)CC)n1
Activity (CT26 [1]): Active | IC50 (HCT-116 [2]): 2.76 µM | Activity (HCT-116 [3]): Active | Activity (HCT-116 [4]): Active | Activity (HCT-116 [5]): inactive | IC50 (HCT-116 [6]): 2.45 µM | Activity (HCT-116 [7]): inactive | inhibition (HCT-116 [8]): Active | Activity (CT26 [9]): Active; Stronger Than 4Mg/Kg Of Cisplatin Treatment Group | Activity (HCT-116 [10]): 13.9% | Activity (HCT-116 [11]): 11.2% | Activity (HCT-116 [12]): inactive | Activity (HCT-116 [13]): inactive | IC50 (BGC-823): 3.81 µM | viability at 1 µM (HCT-116 [14]): 84.6% | Activity (CT26 [15]): 56.5% | viability at 2 µM (HCT-116 [16]): 80.5% | Activity (HCT-116 [17]): Dose-dependent-effect | IC50 (HCT-116 [17]; HCT-116, 24 h): 2.75 µM | IC50 (786-0): 3.86 µM | inhibition (HCT-116 [18]): Active | Activity (HCT-116 [19]): inactive | Activity (CT26 [20]): 87.3% | Activity (HCT-116 [21]): 1.8% | IC50 (HepG2): 4.58 µM | Activity (HCT-116 [22]): inactive | Activity (HCT-116 [23]): Active | Activity (HCT-116 [24]): 1.75% | Activity (HCT-116 [25]): inactive | Activity [26]: Non-toxic | inhibition (HCT-116 [27]): Active | IC50 (SK-OV-3): 4.26 µM | Activity (HCT-116 [28]): Active; Rfp Fluorescence Remained Unchanged | Activity (HCT-116 [29]): inactive | IC50 (MCF7): 4.46 µM | inhibition (HCT-116 [30]): Active | Activity (HCT-116 [31]): Dose-dependent-effect

Source: ChEMBL document CHEMBL6096670, “Design, synthesis and biological evaluation of novel β-carbolines as antitumor agents via targeting autophagy in colorectal cancer” (Eur J Med Chem, 2025)
